In patent US11180504B2 (ORCHID PHARMA LTD., priority 2016, dated 2021):
≈ marks a conversion by molar mass, not a printed value.

Assays:
[1] = tested on: carbapenem sensitive Pseudomonas aeruginosa; experiment: MIC by broth micro-dilution (CLSI), carbapenem sensitive P. aeruginosa; format: cell-based; conditions: Pseudomonas aeruginosa, ATCC27853, Meropenem susceptible P. aeruginosa ATCC27853; read-out: MIC
[2] = tested on: methicillin-sensitive Staphylococcus aureus; experiment: MIC by broth micro-dilution (CLSI), methicillin-sensitive S. aureus; format: cell-based; conditions: Staphylococcus aureus, ATCC 29213 / MSSA, MSSA S. aureus ATCC29213; read-out: MIC
[3] = tested on: carbapenemase producing K. pneumoniae; experiment: MIC by broth micro-dilution (CLSI), carbapenemase producing K. pneumoniae; format: cell-based, Klebsiella pneumoniae; conditions: Klebsiella pneumoniae, ATCCBAA1705, KPC-2 K. pneumoniae ATCC BAA-1705; read-out: MIC
[4] = tested on: extended spectrum β lactamase (ESBL) SHV18 producing Klebsiella pneumoniae; experiment: MIC by broth micro-dilution (CLSI), ESBL SHV18 producing K. pneumoniae; format: cell-based; conditions: Klebsiella pneumoniae, ATCC700603, 22 h, ESBL +ve (SHV-18) K. pneumoniae ATCC700603; read-out: MIC
[5] = tested on: carbapenem sensitive Escherichia coli; experiment: MIC by broth micro-dilution (CLSI), carbapenem sensitive E. coli; format: cell-based; conditions: Escherichia coli, ATCC25922, ESBL −ve E. coli ATCC25922; read-out: MIC

Row | MIC [1] [µg/mL] | MIC [2] [µg/mL] | MIC [3] [µg/mL] | MIC [4] [µg/mL] | MIC [5] [µg/mL] | Structure (SMILES)
1 | > 128 | 4 (≈ 8.12 µM) | 4 to 8 (≈ 8.12 to 16.2 µM) | 8 (≈ 16.2 µM) | 1 (≈ 2.03 µM) | C[C@@H](NC(=O)CC(F)(F)F)[C@H]1C(=O)N2C(C(=O)O)=C(S[C@@H]3CN[C@H](C(=O)N(C)C)C3)[C@H](C)[C@H]12 [Example 40]
2 | 16 (≈ 36.4 µM) | 32 (≈ 72.8 µM) | 8 (≈ 18.2 µM) | 4 (≈ 9.1 µM) | 4 (≈ 9.1 µM) | C[C@@H](NC(=O)CN)[C@H]1C(=O)N2C(C(=O)O)=C(S[C@@H]3CN[C@H](C(=O)N(C)C)C3)[C@H](C)[C@H]12 [Example 44]
3 | 8 (≈ 19.5 µM) | 16 (≈ 39.1 µM) | 64 (≈ 156 µM) | 1 (≈ 2.44 µM) | 0.5 (≈ 1.22 µM) | C[C@@H](NC=N)[C@H]1C(=O)N2C(C(=O)O)=C(S[C@@H]3CN[C@H](C(=O)N(C)C)C3)[C@H](C)[C@H]12 [Example 48]
4 | > 128 | 1 (≈ 2.08 µM) | > 128 | > 128 | 8 (≈ 16.6 µM) | CO/N=C(\C)C(=O)N[C@H](C)[C@H]1C(=O)N2C(C(=O)O)=C(S[C@@H]3CN[C@H](C(=O)N(C)C)C3)[C@H](C)[C@H]12 [Example 54]
5 | 64 (≈ 136 µM) | 64 (≈ 136 µM) | 16 (≈ 34.1 µM) | 16 (≈ 34.1 µM) | 8 (≈ 17 µM) | C[C@@H](NC(=O)[C@H](N)CO)[C@H]1C(=O)N2C(C(=O)O)=C(S[C@@H]3CN[C@H](C(=O)N(C)C)C3)[C@H](C)[C@H]12 [Example 56]
6 | > 128 | 32 (≈ 66.6 µM) | > 128 | > 128 | 16 (≈ 33.3 µM) | C[C@@H](NC(=O)[C@H]1CCCO1)[C@H]1C(=O)N2C(C(=O)O)=C(S[C@@H]3CN[C@H](C(=O)N(C)C)C3)[C@H](C)[C@H]12 [Example 58]

More lines, now with the values behind:

Row | Structure (SMILES) | MIC [1] [µg/mL] | MIC [2] [µg/mL] | MIC [3] [µg/mL] | MIC [4] [µg/mL] | MIC [5] [µg/mL]
7 | C[C@@H](NC(=O)OCC(F)F)[C@H]1C(=O)N2C(C(=O)O)=C(S[C@@H]3CN[C@H](C(=O)N(C)C)C3)[C@H](C)[C@H]12 [Example 41] | > 128 | 2 (≈ 4.08 µM) | 16 (≈ 32.6 µM) | 16 (≈ 32.6 µM) | 1 (≈ 2.04 µM)
8 | C[C@@H](NC(=O)C(F)F)[C@H]1C(=O)N2C(C(=O)O)=C(S[C@@H]3CN[C@H](C(=O)N4CC[S+]([O-])CC4)C3)[C@H](C)[C@H]12 [Example 42] | 128 (≈ 239 µM) | 2 (≈ 3.74 µM) | 8 (≈ 15 µM) | 1 (≈ 1.87 µM) | 1 (≈ 1.87 µM)
9 | C[C@@H](NC(=O)C(F)F)[C@H]1C(=O)N2C(C(=O)O)=C(S[C@@H]3CN[C@H](C(=O)N4CCN(C)CC4)C3)[C@H](C)[C@H]12 [Example 43] | 64 (≈ 124 µM) | 2 (≈ 3.88 µM) | 8 (≈ 15.5 µM) | 4 (≈ 7.76 µM) | 1 (≈ 1.94 µM)
10 | C[C@@H](NC(=O)C(F)F)[C@H]1C(=O)N2C(C(=O)O)=C(S[C@@H]3CN[C@H](C(=O)N4CC[N+](C)(C)CC4)C3)[C@H](C)[C@H]12 [Example 45] | 4 | 1 | 16 | 4 | 1
11 | C[C@@H](NC(=O)C(F)F)[C@H]1C(=O)N2C(C(=O)O)=C(S[C@@H]3CN[C@H](C(=O)N4CC[N+](C)(CC(N)=O)CC4)C3)[C@H](C)[C@H]12 [Example 46] | 16 | 1 | 8 | 4 | 1
12 | C[C@@H](NC(=O)OCC(F)(F)F)[C@H]1C(=O)N2C(C(=O)O)=C(S[C@@H]3CN[C@H](C(=O)N(C)C)C3)[C@H](C)[C@H]12 [Example 47] | > 128 | 2 (≈ 3.93 µM) | 64 (≈ 126 µM) | 128 (≈ 252 µM) | 2 (≈ 3.93 µM)
13 | C[C@@H](NC(=O)C(F)F)[C@H]1C(=O)N2C(C(=O)O)=C(S[C@@H]3CN[C@H](C(=O)N4CCS(=O)(=O)CC4)C3)[C@H](C)[C@H]12 [Example 49] | > 128 | 2 (≈ 3.63 µM) | > 128 | 2 (≈ 3.63 µM) | 1 (≈ 1.82 µM)
14 | C[C@H](NS(C)(=O)=O)C(=O)N[C@H](C)[C@H]1C(=O)N2C(C(=O)O)=C(S[C@@H]3CN[C@H](C(=O)N(C)C)C3)[C@H](C)[C@H]12 [Example 51] | > 128 | 8 (≈ 15 µM) | 32 (≈ 60.2 µM) | 32 (≈ 60.2 µM) | 4 (≈ 7.52 µM)
15 | C[C@@H](NC(=O)OCC(F)(F)F)[C@H]1C(=O)N2C(C(=O)O)=C(S[C@@H]3CN[C@H](CNS(N)(=O)=O)C3)[C@H](C)[C@H]12 [Example 52] | > 128 | 1 (≈ 1.83 µM) | > 128 | 128 (≈ 235 µM) | 8 (≈ 14.7 µM)
16 | C[C@@H](NS(=O)(=O)N(C)C)[C@H]1C(=O)N2C(C(=O)O)=C(S[C@@H]3CN[C@H](C(=O)N(C)C)C3)[C@H](C)[C@H]12 [Example 57] | > 128 | 32 (≈ 65.4 µM) | 128 (≈ 261 µM) | 16 (≈ 32.7 µM) | 4 (≈ 8.17 µM)
